Experimental findings from patent US20140243326A1, “Synergistic Insecticidal Mixtures” (priority 2003, published 2014) are described below.

Molecules are shown by their SMILES. “And” between values parts separate entries of the source, which are not always exact repeats. Equal values may be shown once.

The subject of assay [1] is Phaedon cochleariae larvae. Put plainly: Phaedon cochleariae larvae test (cabbage leaf dip). In kind it is in vivo, mustard beetle (Phaedon cochleariae). Conditions: 4 ppm, single active ingredient. The source says:
(§1) The expected effect for a given combination of two active ingredients can be calculated (cf. Colby, S. R., “Calculating Synergistic and Antagonistic Responses of Herbicide Combinations”, Weeds, 15, pp. 20-22, 1967).
(§2) If • X=the kill rate, expressed in % of the untreated control, while using active ingredient A in an application amount of m ppm, • Y=the kill rate, expressed in % of the untreated control, while using active ingredient B in an application amount of n ppm, • E=the kill rate, expressed in % of die untreated control, while using active ingredient A and B in application amounts of m and n ppm, then
(§3) If the actual kill rate is higher than calculated rate, the combination's kill rate is superadditive, i.e., it has a synergistic effect. In this case, the actually observed kill rate must be higher than the value calculated using the above formula for the expected kill rate (E).
(§4) Solvent: 7 parts per weight dimethyl formamide Emulsifiers: 2 parts by weight alkylaryl polyglycol ether
To manufacture one of the appropriate active ingredient preparations, mix 1 part by weight of the active ingredient with the indicated amount of solvent and emulsifier and dilute the concentrate with emulsifier-containing water to the desired concentration.
Cabbage leaves (Brassica oleracea) are treated by being dipped into the active ingredient preparation at the desired concentration and infested with larvae of the mustard beetle (Phaedon cochleariae) while the leaves are still damp.
After the desired time, determine the % that have been killed off. For this purpose 100% means that all the beetle larvae on the leaves were killed; 0% means that no beetle larvae were killed. Calculate the determined kill values using Colby's formula.

The subject of the next assay is Myzus persicae. Briefly: Myzus persicae test (cabbage leaf dip). In kind it is in vivo, green peach aphid (Myzus persicae). Conditions: single active ingredient.
Excerpt: as §1, §2, §3, §4
(§5) To prepare one of the appropriate active ingredient preparations, mix 1 part by weight of the active ingredient with the indicated amount of solvent and emulsifier and dilute the concentrate with emulsifier-containing water to the desired concentration.
Cabbage leaves (Brassica oleracea) that have been highly infested with the green peach aphid (Myzus persicae) are treated by being dipped into the active ingredient preparation at the desired concentration.
After the desired time, determine the % that have been killed off. For these purposes, 100% means that all the aphids on the leaves were killed; 0% means that no aphids were killed. Calculate the determined kill values using Colby's formula.

In assay [2] the test system is Plutella xylostella, resistant strain. Briefly: Plutella xylostella test, resistant strain (cabbage leaf dip). In kind it is in vivo, diamondback moth (Plutella xylostella. The settings on record: 100 ppm, single active ingredient.
Excerpt: as §1, §2, §3
Solvent: 7 parts per weight dimethyl formamide Emulsifier: 2 parts by weight alkylaryl polyglycol ether
as §5
Cabbage leaves (Brassica oleracea) are treated by being dipped into the active ingredient preparation at the desired concentration and infested with diamondback moth grubs (Plutella xylostella, resistant strain) while the leaves are still damp.
After the desired time, determine the % that have been killed off. For these purposes 100% means that all the grubs on the leaves were killed; 0% means that no grubs were killed. Calculate the determined kill rate values using Colby's formula.

Turning to `CN/C(=N\[N+](=O)[O-])NCc1cnc(Cl)s1` [clothianidin], the “Kill rate in % after 6d” value in assay [1] amounted to 75%.
As to `O=[N+]([O-])NC1=NCCN1Cc1ccc(Cl)nc1` [imidacloprid], the “Kill rate in % after 6d” value in assay [1] was found to be 45%.
As to `CN1COCN(Cc2cnc(Cl)s2)/C1=N/[N+](=O)[O-]` [thiamethoxam], the “Kill rate in % after 6d” value in the assay with Myzus persicae (0.8 ppm) came out at 85%; in assay [1] it was 25%; in assay [2], 75%.
For the compound `N#C/N=C1\SCCN1Cc1ccc(Cl)nc1` [thiacloprid], in the assay with Myzus persicae (0.8 ppm), the “Dead in % after 6d” value is 30%. Moreover, the “Kill rate in % after 6d” value in assay [1] is 0%; in assay [2] it was 45%.
Consider `CS/C(C)=N\OC(=O)N(C)SN(C)C(=O)O/N=C(\C)SC` [thiodicarb], for which, in the assay with Myzus persicae (20 ppm), the “Dead in % after 6d” value is 0% and the “Kill rate in % after 6d” value was 0%. Moreover, in assay [2], the “Kill rate in % after 6d” value is 15% and 5%.
